Results from US20120321694A1, “COMPOSITIONS AND USES” (priority 2010, published 2012).
Where no end group is shown, it is not given here. The star is where a group is joined. Pam3Cys = N-terminal lipid (lipidation), CCCCCCCCCCCCCCCC(=O)N[C@@H](CSCC(COC(=O)CCCCCCCCCCCCCCC)OC(=O)CCCCCCCCCCCCCCC)C(=O)*

How the values were obtained:
BV2 microglia cells = experiment: In vitro phagocytosis of Aβ1-42 in BV2 cells (Western blot); type: cell-based, mouse; settings: 5 μg/mL cytochalasin D, 30 min before; FIG. 16
Protocol: For total Aβ detection, 10-30 μg of cell extracts were separated on a precast 10-20% SDS polyacrylamide Tris-Tricine gel (Bio-Rad, Canada). Separated proteins were then transferred onto polyvinylidene fluoride (PVDF) membranes (PerkinElmer, Canada). Membrane were incubated in DPBS (Gibco, USA) at 90° C. for 10 min. […] Films were digitalized using a HP Scanjet 4370 (HP) and signal intensity was measured using ImageJ (version 1.44p, NIH).
BV2 microglia cells were seeded at 900000 cells/60 mm cell culture Petri dish 24 hours prior the experiment, and cultured in complete media (Dulbecco's Modified Eagle Medium (DMEM, Gibco, USA) supplemented with 10% fetal bovine serum (FBS) (Gibco, USA), 1 mM sodium pyruvate (Gibco, USA) and 100 U/mL of penicillin and 100 μg/mL of streptomycin (Gibco, USA)). […] Protein concentration in supernatant or cell extracts was then measured using the Bradford method (Coomassie Plus, The better Bradford assay reagent, Thermoscientific, USA) accordingly to the manufacturer recommendation and equal amount of protein were then analyzed by Western blot. […]

Aβ42 = experiment: Anti-Aβ42 immunogenicity in amyloid deposition mouse model; type: in vivo, TASTPM mice; settings: 12 injections, intramuscular route; FIG. 29
TASTPM mice [1] = experiment: T-water maze in TASTPM mice; type: in vivo; settings: 12 weekly i.m. injections; vs PBS; FIG. 30
Protocol: To determine whether a TLR2 agonist will improve the cognitive impairment in TASTPM mice, the Pam3CysLip adjuvant fused to the Aβ1-6 peptide was injected 12 times at weekly basis using the intramuscular route and the memory was assessed using the T-water maze test. […] TASTPM mice have received one a week for a period of 12 weeks the following treatment: PBS or mice have received once a week for a period of 12 weeks the following treatment: PBS or of Pam3CysLip Aβ1-6 peptide.

TASTPM mice [2] = experiment: Survival of TASTPM mice; type: in vivo; settings: weekly injections, followed for 112 days; PBS 13 out 25; FIG. 31
Excerpt: The usage of the TLR2 agonist, i.e. Pam3CysLip Aβ1-6 peptide, improves the survival rate of TASTPM mouse model. 23 out of 25 mice survived after weekly injections of Pam3CysLip Aβ1-6 peptide compared to PBS injected animals in which only 13 out 25 TASTPM mice survived (followed for 112 days).

Molecule	effect on 2E7-stimulated cellular uptake of Aβ1-42 (BV2 microglia cells)	anti Aβ42 specific immunogenicity (Aβ42)	T-water maze, right-left discrimination tests (working memory) (TASTPM mice [1])	mice survived (TASTPM mice [2])
C=C1[C@@H](C)[C@H]2[C@H](Cc3ccccc3)NC(=O)[C@]23[C@H](OC(C)=O)/C=C/[C@@](C)(O)C(=O)[C@@H](C)C/C=C/[C@H]3[C@@H]1O [cytochalasin D]	further inhibited	–	–	–
Pam3Cys—SQ EPAAPAAEAT PAAEAPDAEFRH (Pam3Cys-SQEPAAPAAEATPAAEAPDAEFRH) [Pam3CysLip Aβ1-6 peptide]	–	High and specific anti Aβ42 specific immunogenicity	trend of improvement	23 out of 25
